According to paper PMC8231556, “Inhibiting Endothelial Cell Function in Normal and Tumor Angiogenesis Using BMP Type I Receptor Macrocyclic Kinase Inhibitors” (Cancers, 2021):

Tests used:
Test in all cases: radiometric kinase profiling (33 PanQinase)
Type in all cases: biochemical
KIT = molecular target: T1, KIT (Homo sapiens, UniProt P10721); conditions: read-out: Inhibitory effect (%) KIT
T1 construct: purchased ProQinase (33PanQinase Activity Assay)
Outline: (§1)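 Enzyme/substrate mixes were incubated with [γ-33P]-ATP and compound (added as a 0.1 μM solution in 10% DMSO) at 30 °C for 60 min, then stopped with H3PO4 and washed with NaCl. 33P incorporation was scintillation-counted, and residual activity (%) was normalized to untreated control and background.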

CAMK2D = molecular target: T2, CAMK2D (Homo sapiens, UniProt Q13557); conditions: read-out: Inhibitory effect (%) CAMK2D
T2 construct: purchased Proqinase, Germany
Outline: as §1

BTK = molecular target: T3, BTK (Homo sapiens, UniProt Q06187); conditions: read-out: Inhibitory effect (%) BTK
T3 construct: purchased Proqinase, Germany
Outline: as §1

ACVR1 = molecular target: T4, ACVR1 (Homo sapiens, UniProt Q04771); conditions: read-out: Inhibitory effect (%) ACVR1
T4 construct: purchased Proqinase, Germany
T4 sequence (Q04771 21-509): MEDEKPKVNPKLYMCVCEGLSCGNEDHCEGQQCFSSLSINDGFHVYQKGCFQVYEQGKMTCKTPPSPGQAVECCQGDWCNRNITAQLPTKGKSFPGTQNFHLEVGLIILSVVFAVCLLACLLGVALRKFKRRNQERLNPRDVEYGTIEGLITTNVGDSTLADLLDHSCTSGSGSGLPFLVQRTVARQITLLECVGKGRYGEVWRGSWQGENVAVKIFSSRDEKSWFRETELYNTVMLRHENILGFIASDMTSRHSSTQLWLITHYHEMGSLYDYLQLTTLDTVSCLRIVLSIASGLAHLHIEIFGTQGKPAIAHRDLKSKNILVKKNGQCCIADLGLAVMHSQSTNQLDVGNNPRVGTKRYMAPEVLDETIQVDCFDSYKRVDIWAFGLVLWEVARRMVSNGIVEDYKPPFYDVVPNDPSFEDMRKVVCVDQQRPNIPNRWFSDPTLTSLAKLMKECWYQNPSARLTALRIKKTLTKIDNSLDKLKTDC
Outline: as §1

MAP3K10 = molecular target: T5, MAP3K10 (Homo sapiens, UniProt Q02779); conditions: read-out: Inhibitory effect (%) MAP3K10
T5 construct: purchased ProQinase (33PanQinase Activity Assay)
Outline: as §1

CAMK1D = molecular target: T6, CAMK1D (Homo sapiens, UniProt Q8IU85); conditions: read-out: Inhibitory effect (%) CAMK1D
T6 construct: purchased Proqinase, Germany
Outline: as §1

DYRK1A = molecular target: T7, DYRK1A (Homo sapiens, UniProt Q13627); conditions: read-out: Inhibitory effect (%) DYRK1A
T7 construct: purchased Proqinase, Germany
Outline: as §1

NUAK1 = molecular target: T8, NUAK1 (Homo sapiens, UniProt O60285); conditions: read-out: Inhibitory effect (%) NUAK1
T8 construct: purchased ProQinase (33PanQinase Activity Assay)
T8 sequence (O60285 1-661): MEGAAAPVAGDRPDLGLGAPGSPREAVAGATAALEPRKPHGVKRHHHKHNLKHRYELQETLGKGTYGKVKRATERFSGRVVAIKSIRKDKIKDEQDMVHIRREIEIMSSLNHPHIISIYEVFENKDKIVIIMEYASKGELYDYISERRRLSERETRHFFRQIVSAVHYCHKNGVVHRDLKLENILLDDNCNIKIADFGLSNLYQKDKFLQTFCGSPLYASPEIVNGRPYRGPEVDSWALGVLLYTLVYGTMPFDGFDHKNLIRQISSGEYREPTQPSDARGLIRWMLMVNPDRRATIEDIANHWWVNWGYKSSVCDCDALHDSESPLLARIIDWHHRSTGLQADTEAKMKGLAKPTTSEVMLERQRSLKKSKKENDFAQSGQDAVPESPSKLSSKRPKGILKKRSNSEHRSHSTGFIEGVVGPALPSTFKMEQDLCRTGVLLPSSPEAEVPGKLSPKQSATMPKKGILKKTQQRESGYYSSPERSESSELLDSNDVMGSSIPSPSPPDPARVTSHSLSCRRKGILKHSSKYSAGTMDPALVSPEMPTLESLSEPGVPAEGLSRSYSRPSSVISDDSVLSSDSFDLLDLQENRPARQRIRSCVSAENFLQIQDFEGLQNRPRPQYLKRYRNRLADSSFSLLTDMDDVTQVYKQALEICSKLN
Outline: as §1

MAP2K1 = molecular target: T9, MAP2K1 (Homo sapiens, UniProt Q02750); conditions: read-out: Inhibitory effect (%) MAP2K1
T9 construct: purchased ProQinase (33PanQinase Activity Assay)
Outline: as §1

PDK1 = molecular target: T10, PDK1 (Homo sapiens, UniProt O15530); conditions: read-out: Inhibitory effect (%) PDK1
T10 construct: purchased ProQinase (33PanQinase Activity Assay)
T10 sequence (O15530 1-556): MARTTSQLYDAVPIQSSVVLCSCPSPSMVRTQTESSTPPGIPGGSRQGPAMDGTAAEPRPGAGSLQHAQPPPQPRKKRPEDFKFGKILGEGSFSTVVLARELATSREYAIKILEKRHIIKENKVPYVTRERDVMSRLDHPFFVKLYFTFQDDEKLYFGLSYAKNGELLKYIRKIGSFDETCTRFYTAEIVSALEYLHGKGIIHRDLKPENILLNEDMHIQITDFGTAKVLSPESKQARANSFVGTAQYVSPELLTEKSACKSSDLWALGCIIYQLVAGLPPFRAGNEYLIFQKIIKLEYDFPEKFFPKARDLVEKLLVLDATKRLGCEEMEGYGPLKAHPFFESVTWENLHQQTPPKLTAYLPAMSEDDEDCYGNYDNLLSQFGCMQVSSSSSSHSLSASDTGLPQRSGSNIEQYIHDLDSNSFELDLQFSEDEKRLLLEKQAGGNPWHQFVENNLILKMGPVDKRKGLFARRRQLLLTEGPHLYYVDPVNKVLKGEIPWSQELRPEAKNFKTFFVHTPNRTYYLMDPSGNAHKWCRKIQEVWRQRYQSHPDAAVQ
Outline: as §1

MAPK3 = molecular target: T11, MAPK3 (Homo sapiens, UniProt P27361); conditions: read-out: Inhibitory effect (%) MAPK3
T11 construct: purchased ProQinase (33PanQinase Activity Assay)
Outline: as §1

CDK4_cyclinD1 = molecular target: T12, CDK4_cyclinD1 (Homo sapiens, UniProt P11802); conditions: read-out: Inhibitory effect (%) CDK4_cyclinD1
T12 construct: purchased Proqinase, Germany
Outline: as §1

T2 sequence (Q13557 whole entry): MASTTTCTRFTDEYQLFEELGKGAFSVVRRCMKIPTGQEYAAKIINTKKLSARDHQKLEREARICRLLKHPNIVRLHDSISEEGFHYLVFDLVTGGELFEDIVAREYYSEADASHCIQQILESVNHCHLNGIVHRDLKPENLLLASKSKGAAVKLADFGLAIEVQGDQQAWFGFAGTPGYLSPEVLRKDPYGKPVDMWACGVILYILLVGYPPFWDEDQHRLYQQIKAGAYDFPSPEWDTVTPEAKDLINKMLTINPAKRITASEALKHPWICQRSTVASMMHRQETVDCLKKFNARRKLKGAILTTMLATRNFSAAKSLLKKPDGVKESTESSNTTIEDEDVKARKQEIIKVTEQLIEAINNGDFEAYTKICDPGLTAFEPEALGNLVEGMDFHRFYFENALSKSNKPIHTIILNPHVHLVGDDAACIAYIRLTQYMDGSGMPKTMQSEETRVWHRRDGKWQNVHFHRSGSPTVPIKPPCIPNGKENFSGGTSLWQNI
T11 sequence (P27361 whole entry): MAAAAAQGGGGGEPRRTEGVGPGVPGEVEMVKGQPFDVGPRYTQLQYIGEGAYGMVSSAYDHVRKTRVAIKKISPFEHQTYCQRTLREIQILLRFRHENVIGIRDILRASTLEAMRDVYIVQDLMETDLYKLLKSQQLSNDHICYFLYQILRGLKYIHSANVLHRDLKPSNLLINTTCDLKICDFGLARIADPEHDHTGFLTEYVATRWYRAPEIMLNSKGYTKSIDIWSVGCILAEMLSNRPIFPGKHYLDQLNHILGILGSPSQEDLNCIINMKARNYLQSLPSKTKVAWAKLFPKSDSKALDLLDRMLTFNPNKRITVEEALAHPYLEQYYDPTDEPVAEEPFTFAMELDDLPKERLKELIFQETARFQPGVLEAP
T3 sequence (Q06187 whole entry): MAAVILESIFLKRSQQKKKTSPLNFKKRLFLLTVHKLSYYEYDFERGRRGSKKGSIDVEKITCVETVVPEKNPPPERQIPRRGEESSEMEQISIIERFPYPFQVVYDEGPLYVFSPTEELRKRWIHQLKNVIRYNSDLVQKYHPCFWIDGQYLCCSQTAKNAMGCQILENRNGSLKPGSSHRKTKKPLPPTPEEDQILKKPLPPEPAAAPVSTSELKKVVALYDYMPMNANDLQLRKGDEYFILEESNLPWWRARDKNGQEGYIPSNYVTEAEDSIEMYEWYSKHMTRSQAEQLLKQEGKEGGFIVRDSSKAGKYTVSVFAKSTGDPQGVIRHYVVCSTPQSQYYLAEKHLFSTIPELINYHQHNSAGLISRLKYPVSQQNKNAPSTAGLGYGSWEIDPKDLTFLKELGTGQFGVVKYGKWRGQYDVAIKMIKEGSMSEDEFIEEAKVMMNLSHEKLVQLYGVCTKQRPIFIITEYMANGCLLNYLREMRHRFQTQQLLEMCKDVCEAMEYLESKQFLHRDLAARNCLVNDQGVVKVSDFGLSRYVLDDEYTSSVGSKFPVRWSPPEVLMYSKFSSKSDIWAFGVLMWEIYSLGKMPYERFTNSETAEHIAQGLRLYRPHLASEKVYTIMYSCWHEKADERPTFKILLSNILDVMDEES
T6 sequence (Q8IU85 whole entry): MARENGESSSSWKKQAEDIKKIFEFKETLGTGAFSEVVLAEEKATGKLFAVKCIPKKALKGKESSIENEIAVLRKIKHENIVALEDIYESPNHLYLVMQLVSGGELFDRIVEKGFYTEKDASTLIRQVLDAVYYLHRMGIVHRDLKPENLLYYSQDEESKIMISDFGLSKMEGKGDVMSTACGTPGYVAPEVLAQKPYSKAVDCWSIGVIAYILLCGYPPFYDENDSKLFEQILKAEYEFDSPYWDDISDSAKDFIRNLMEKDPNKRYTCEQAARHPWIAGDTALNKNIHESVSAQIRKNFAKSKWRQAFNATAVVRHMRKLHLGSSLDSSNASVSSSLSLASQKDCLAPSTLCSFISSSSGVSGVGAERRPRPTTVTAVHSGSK
T5 sequence (Q02779 whole entry): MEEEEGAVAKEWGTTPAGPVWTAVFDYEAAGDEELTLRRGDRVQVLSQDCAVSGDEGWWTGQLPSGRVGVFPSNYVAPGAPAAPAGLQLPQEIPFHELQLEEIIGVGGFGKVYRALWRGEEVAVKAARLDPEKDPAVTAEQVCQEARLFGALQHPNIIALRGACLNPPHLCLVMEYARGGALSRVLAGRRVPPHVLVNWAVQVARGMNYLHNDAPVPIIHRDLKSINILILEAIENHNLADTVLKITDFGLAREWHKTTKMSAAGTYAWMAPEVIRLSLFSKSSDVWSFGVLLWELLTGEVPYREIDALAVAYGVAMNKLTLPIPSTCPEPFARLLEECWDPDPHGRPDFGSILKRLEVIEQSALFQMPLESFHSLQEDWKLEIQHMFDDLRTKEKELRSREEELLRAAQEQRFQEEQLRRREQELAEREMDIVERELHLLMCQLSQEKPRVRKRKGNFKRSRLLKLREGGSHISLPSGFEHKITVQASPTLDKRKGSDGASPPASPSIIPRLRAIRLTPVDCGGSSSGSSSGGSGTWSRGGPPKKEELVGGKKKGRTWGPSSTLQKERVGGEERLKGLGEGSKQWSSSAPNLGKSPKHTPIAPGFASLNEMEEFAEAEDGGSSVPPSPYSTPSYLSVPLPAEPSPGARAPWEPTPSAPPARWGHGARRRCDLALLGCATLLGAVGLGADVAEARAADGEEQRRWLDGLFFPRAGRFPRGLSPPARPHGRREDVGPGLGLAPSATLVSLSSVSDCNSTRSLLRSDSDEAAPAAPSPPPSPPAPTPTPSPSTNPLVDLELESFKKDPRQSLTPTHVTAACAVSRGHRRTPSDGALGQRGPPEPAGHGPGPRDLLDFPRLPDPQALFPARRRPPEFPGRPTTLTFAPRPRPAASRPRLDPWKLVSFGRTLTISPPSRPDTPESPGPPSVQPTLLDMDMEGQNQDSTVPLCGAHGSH
T12 sequence (P11802 whole entry): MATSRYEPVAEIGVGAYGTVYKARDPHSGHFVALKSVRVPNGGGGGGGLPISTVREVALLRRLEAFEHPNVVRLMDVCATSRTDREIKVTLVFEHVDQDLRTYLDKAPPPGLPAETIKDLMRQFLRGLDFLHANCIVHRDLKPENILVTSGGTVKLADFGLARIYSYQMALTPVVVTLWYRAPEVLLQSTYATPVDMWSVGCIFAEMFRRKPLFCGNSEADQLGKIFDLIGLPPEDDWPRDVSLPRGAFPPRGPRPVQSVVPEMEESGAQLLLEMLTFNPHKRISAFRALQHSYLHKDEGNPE
T12 sequence (P24385 whole entry partner): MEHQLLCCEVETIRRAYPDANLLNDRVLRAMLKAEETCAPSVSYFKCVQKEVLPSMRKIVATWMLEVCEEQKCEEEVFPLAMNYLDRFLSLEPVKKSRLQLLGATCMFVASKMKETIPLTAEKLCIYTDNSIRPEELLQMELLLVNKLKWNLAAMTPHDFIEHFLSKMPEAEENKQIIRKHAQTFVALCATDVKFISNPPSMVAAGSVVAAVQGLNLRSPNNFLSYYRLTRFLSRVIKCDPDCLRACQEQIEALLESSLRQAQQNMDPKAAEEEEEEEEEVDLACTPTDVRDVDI
T1 sequence (P10721 26-976): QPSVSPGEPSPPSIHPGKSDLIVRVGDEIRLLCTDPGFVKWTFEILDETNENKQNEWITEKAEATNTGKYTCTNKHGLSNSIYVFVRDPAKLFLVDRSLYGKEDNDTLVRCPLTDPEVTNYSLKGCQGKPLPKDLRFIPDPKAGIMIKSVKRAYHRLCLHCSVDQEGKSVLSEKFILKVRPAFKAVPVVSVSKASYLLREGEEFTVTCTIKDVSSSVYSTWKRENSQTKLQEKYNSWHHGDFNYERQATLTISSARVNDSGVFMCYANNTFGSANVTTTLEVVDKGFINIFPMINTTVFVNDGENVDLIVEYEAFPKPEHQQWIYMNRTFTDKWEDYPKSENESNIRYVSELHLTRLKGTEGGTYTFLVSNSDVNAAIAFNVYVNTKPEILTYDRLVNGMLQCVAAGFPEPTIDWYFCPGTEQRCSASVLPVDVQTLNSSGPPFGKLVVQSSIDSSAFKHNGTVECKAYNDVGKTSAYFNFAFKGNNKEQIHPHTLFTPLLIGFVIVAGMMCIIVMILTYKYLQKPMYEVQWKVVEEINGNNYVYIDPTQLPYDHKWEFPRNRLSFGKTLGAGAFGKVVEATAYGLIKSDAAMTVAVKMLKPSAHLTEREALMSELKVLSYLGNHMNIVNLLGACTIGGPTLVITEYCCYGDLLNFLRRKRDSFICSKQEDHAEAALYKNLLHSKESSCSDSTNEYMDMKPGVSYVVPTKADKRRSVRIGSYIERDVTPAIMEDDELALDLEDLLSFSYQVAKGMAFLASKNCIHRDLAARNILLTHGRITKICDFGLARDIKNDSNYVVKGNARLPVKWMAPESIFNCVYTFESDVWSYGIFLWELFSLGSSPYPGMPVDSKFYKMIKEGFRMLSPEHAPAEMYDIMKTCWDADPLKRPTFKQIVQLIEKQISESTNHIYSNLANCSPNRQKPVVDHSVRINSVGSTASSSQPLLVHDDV
T9 sequence (Q02750 whole entry): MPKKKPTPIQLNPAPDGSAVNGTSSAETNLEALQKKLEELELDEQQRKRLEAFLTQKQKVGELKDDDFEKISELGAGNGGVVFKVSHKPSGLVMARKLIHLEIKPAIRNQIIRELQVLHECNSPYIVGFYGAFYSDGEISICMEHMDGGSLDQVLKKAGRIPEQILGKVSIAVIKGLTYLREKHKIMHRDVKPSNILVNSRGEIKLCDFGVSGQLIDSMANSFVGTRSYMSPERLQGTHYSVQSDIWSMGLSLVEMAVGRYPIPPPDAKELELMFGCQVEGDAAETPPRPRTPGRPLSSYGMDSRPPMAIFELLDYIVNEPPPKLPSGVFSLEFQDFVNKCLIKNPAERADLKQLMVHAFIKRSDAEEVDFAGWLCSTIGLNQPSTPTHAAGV

SMILES | inhibition at 0.1 µM (KIT) [%] | inhibition at 0.1 µM (CAMK2D) [%] | inhibition at 0.1 µM (BTK) [%] | inhibition at 0.1 µM (ACVR1) [%] | inhibition at 0.1 µM (MAP3K10) [%] | inhibition at 0.1 µM (CAMK1D) [%] | inhibition at 0.1 µM (DYRK1A) [%] | inhibition at 0.1 µM (NUAK1) [%] | inhibition at 0.1 µM (MAP2K1) [%] | inhibition at 0.1 µM (PDK1) [%] | inhibition at 0.1 µM (MAPK3) [%] | inhibition at 0.1 µM (CDK4_cyclinD1) [%]
CN1CCC(=O)NCCNc2ccn3ncc(c3n2)-c2cccc(c2)C1 [OD29] | 7.49 | 9.77 | 7.22 | 92.5 | 1.57 | -7.41 | -7.58 | 5.32 | 7.68 | -1.4 | -7.55 | -13.8
CN1CCc2cccc(c2)Nc2nccc(n2)N2CCCc3cc(ccc32)C1 [OD16] | 33 | -3.48 | -12 | 90.2 | 1.85 | -5.9 | -6.26 | 74.3 | 5.48 | -7.16 | -13.8 | 20.3
c1ccc2c(-c3cnn4cc(-c5ccc(N6CCNCC6)cc5)cnc34)ccnc2c1 [LDN-193189, reference compound] | -20.3 | -13.3 | -12.4 | 67.7 | -26.4 | 4.59 | -15.6 | -20.2 | 11.1 | -8.72 | -8.08 | -10.1
